In PubChem BioAssay (NCI):
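Protocol summary: plate cells (96-well), add compound at 5 concentrations, incubate 48 h, interpolate endpoints linearly. TGI denotes the concentration required for complete inhibition of growth.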 Where a SMILES comes first, the peptide text is derived from it. The star is where a group is joined. Ethyl(2-NMe3+) = C[N+](C)(C)CC*; Boc = CC(C)(C)OC(=O)*

Experiments:
Assay in all cases: inhibition of tumour cell growth, NCI panel, 48 h
NCI-H522 lung = system: NCI-H522 lung
HCT-116 colon = system: HCT-116 colon
UACC-62 melanoma = system: UACC-62 melanoma
OVCAR-5 ovarian = system: OVCAR-5 ovarian
HS 578T breast = system: HS 578T breast
SR leukemia = system: SR leukemia
LOX IMVI melanoma = system: LOX IMVI melanoma
OVCAR-3 ovarian = system: OVCAR-3 ovarian
NCI-H226 lung = system: NCI-H226 lung
DU-145 prostate = system: DU-145 prostate
KM12 colon = system: KM12 colon
SK-MEL-28 melanoma = system: SK-MEL-28 melanoma
UACC-257 melanoma = system: UACC-257 melanoma
PC-3 prostate = system: PC-3 prostate
ACHN renal = system: ACHN renal
OVCAR-8 ovarian = system: OVCAR-8 ovarian

SMILES | TGI (NCI-H522 lung) | TGI (HCT-116 colon) | TGI (UACC-62 melanoma) | TGI (OVCAR-5 ovarian) | TGI (HS 578T breast) | TGI (SR leukemia) | TGI (LOX IMVI melanoma) | TGI (OVCAR-3 ovarian) | TGI (NCI-H226 lung) | TGI (DU-145 prostate) | TGI (KM12 colon) | TGI (SK-MEL-28 melanoma) | TGI (UACC-257 melanoma) | TGI (PC-3 prostate) | TGI (ACHN renal) | TGI (OVCAR-8 ovarian)
COc1ccc2c(c1)-c1[nH]c3ccc(OC)cc3c1CC2 | 17.6 µM | 32.4 µM | 28.6 µM | 28.6 µM | 28 µM | 53.2 µM | 29.8 µM | 32.9 µM | 24.3 µM | 32.9 µM | 19 µM | 32.4 µM | 32.4 µM | 24.1 µM | 36.5 µM | 27.3 µM
Cc1ccc(C2SC(N)=Nc3c2c(C)nn3C(=O)c2ccccc2O)cc1 (centres undefined) | – | > 10 µM | 4.27 µM | > 10 µM | 5.27 µM | > 10 µM | > 10 µM | > 10 µM | > 10 µM | > 10 µM | > 10 µM | > 10 µM | > 10 µM | > 10 µM | > 10 µM | > 10 µM
C[N+]1(Cc2ccc(Cl)c(Cl)c2)CCCC1C1CCCN(Cc2ccc(Cl)c(Cl)c2)C1 (centres undefined) | > 100 µM | > 100 µM | > 100 µM | > 100 µM | > 100 µM | > 100 µM | > 100 µM | > 100 µM | – | > 100 µM | > 100 µM | > 100 µM | > 100 µM | > 100 µM | > 100 µM | > 100 µM
Cc1cc2nc(N3C(=O)/C(=C/c4ccccc4S)N=C3c3ccccc3)sc2cc1C | – | 61.3 µM | > 100 µM | > 100 µM | > 100 µM | > 100 µM | > 100 µM | > 100 µM | – | > 100 µM | > 100 µM | > 100 µM | > 100 µM | 58.1 µM | > 100 µM | > 100 µM
CC1(c2cccc(Cl)c2)CC(c2cccc(Cl)c2)=C(C#N)C(=C(C#N)C#N)N1 (centres undefined) | – | 34.1 µM | 34.6 µM | 46.4 µM | 34.1 µM | 65.3 µM | 39 µM | 23 µM | 60.9 µM | 29.3 µM | 39 µM | 74 µM | 42 µM | 34.3 µM | 31.9 µM | 42.6 µM
C[C@]12C[C@@H](c3ccccc3)Nc3ccccc3N1C(c1ccccc1)=NO2 | 86.4 µM | > 100 µM | > 100 µM | > 100 µM | > 100 µM | 34.6 µM | – | > 100 µM | 90.8 µM | > 100 µM | > 100 µM | – | > 100 µM | > 100 µM | > 100 µM | > 100 µM
Nc1ncnc2c1ncn2C1OC(CO)C(O)C(O)C1O (centres undefined) | > 100 µM | > 100 µM | – | > 100 µM | > 100 µM | > 100 µM | > 100 µM | > 100 µM | > 100 µM | > 100 µM | > 100 µM | > 100 µM | > 100 µM | > 100 µM | > 100 µM | > 100 µM
Nc1[nH]c(=S)c2c(N)n[nH]c2c1C(=O)Nc1ccccc1 | > 100 µM | > 100 µM | > 100 µM | > 100 µM | > 100 µM | > 100 µM | > 100 µM | > 100 µM | > 100 µM | > 100 µM | > 100 µM | > 100 µM | > 100 µM | > 100 µM | – | > 100 µM
COc1cccc(-c2nc3ccccc3c(=O)[nH]2)c1OC | – | > 100 µM | > 100 µM | > 100 µM | > 100 µM | > 100 µM | – | > 100 µM | > 100 µM | > 100 µM | > 100 µM | – | > 100 µM | > 100 µM | > 100 µM | > 100 µM
O=C(Nc1ccccc1)n1[nH]c(=O)n(-c2ccccc2)c1=O | > 100 µM | > 100 µM | > 100 µM | – | > 100 µM | > 100 µM | > 100 µM | – | > 100 µM | > 100 µM | > 100 µM | > 100 µM | > 100 µM | > 100 µM | > 100 µM | > 100 µM
NC(=S)N/N=C1/CCCC2CCCC[C@@H]12 (some centres undefined) | > 100 µM | – | > 100 µM | > 100 µM | > 100 µM | > 100 µM | > 100 µM | > 100 µM | > 100 µM | > 100 µM | > 100 µM | > 100 µM | > 100 µM | > 100 µM | > 100 µM | > 100 µM
CC(C)(C)c1ccc(-n2c3nc(=O)n(-c4ccccc4CO)c(=O)c-3cc3ccccc32)cc1 | > 100 µM | > 100 µM | > 100 µM | > 100 µM | > 100 µM | 73 µM | 37.9 µM | – | > 100 µM | > 100 µM | > 100 µM | > 100 µM | > 100 µM | > 100 µM | > 100 µM | > 100 µM
COc1ccc(/C=C2\N=C(SC)N(CN3CCCCC3)C2=O)cc1 | > 100 µM | > 100 µM | > 100 µM | > 100 µM | > 100 µM | > 100 µM | > 100 µM | > 100 µM | > 100 µM | > 100 µM | > 100 µM | > 100 µM | – | > 100 µM | > 100 µM | > 100 µM
COc1ccc(NC(=O)/C(=N/NC(N)=S)C2C(=O)NC(=S)NC2=O)c(OC)c1 | > 100 µM | > 100 µM | > 100 µM | > 100 µM | > 100 µM | – | > 100 µM | > 100 µM | > 100 µM | > 100 µM | > 100 µM | > 100 µM | > 100 µM | > 100 µM | > 100 µM | > 100 µM
COc1cc([C@H]2CC(=O)C[C@H](c3cc(OC)c(OC)c(OC)c3)C23C(=O)c2ccccc2C3=O)cc(OC)c1OC | 95.1 µM | 63.7 µM | > 100 µM | > 100 µM | > 100 µM | > 100 µM | – | > 100 µM | > 100 µM | > 100 µM | > 100 µM | > 100 µM | > 100 µM | > 100 µM | > 100 µM | > 100 µM
O=c1n(-c2ccccc2)c(=O)n2n1C1Cc3ccccc3C12 (centres undefined) | – | > 100 µM | > 100 µM | > 100 µM | > 100 µM | > 100 µM | > 100 µM | > 100 µM | > 100 µM | > 100 µM | > 100 µM | > 100 µM | > 100 µM | > 100 µM | > 100 µM | > 100 µM
C#C[C@]1(O)CC[C@H]2[C@@H]3CCC4=C/C(=N/NC(=O)c5cccc6cc7ccccc7nc56)CC[C@@H]4[C@H]3CC[C@@]21CC | – | > 100 µM | > 100 µM | > 100 µM | > 100 µM | > 100 µM | > 100 µM | > 100 µM | > 100 µM | > 100 µM | > 100 µM | > 100 µM | > 100 µM | > 100 µM | > 100 µM | > 100 µM
Cc1ccc(N(C(=O)Nc2ccc(F)c(Cl)c2)C2=NCC(C)S2)cc1 (centres undefined) | – | > 100 µM | – | > 100 µM | > 100 µM | > 100 µM | > 100 µM | > 100 µM | – | > 100 µM | > 100 µM | > 100 µM | > 100 µM | > 100 µM | > 100 µM | > 100 µM
CCOC(=O)[C@@H]1CCN2CN(c3ccc(OC)cc3)N=C(c3ccccc3)[C@@]12c1ccccc1 | 49.5 µM | 40.2 µM | 35 µM | > 100 µM | 70.3 µM | > 100 µM | 29.6 µM | – | 38.9 µM | 70.7 µM | > 100 µM | 56 µM | 49.7 µM | > 100 µM | 91.5 µM | 61.3 µM
COc1ccc(OC2OC(COC(c3ccccc3)(c3ccc(OC)cc3)c3ccc(OC)cc3)C(O)C(O)C2O)cc1 (centres undefined) | 11.7 µM | 10.7 µM | 14.1 µM | 20.7 µM | 19.1 µM | > 100 µM | 3.95 µM | 14.7 µM | 28.3 µM | 35.7 µM | 14.7 µM | 10.1 µM | 20.1 µM | 9.59 µM | 14.3 µM | –
Cc1ccc(C(=O)Nc2ccc(CP(=O)(O)O)cc2CP(=O)(O)O)cc1NC(=O)c1cccc(NC(=O)Nc2cccc(C(=O)Nc3cc(C(=O)Nc4ccc(CP(=O)(O)O)cc4CP(=O)(O)O)ccc3C)c2)c1 | > 100 µM | > 100 µM | > 100 µM | > 100 µM | > 100 µM | – | > 100 µM | > 100 µM | > 100 µM | > 100 µM | > 100 µM | > 100 µM | > 100 µM | > 100 µM | > 100 µM | > 100 µM
CC(NC(=O)C(Cc1ccc(OCC[N+](C)(C)C)cc1)NC(=O)OC(C)(C)C)C(=O)NC(Cc1ccccc1)C(=O)NCC(N)=O (centres undefined) (Boc-Y(Ethyl(2-NMe3+))AFG-NH2; configuration not given here) | > 100 µM | > 100 µM | 71.7 µM | 59.5 µM | 83 µM | – | > 100 µM | 60.3 µM | 59 µM | > 100 µM | > 100 µM | > 100 µM | > 100 µM | > 100 µM | > 100 µM | 55.3 µM
